Measurements taken from patent publication US8785457B2 (Cellzome Limited, priority 2009, dated 2014).
Read-outs that look alike come from different tables or passages of the source.

How the values were obtained:
[1] = target: T1, PI3Kalpha (PI3Ka) (Homo sapiens, UniProt P42336); test: kinobeads assay, PI3Kalpha; type: binding; conditions: kinobeads assay, Table 6; for IC50: read-out: Inhibition values (IC50) PI3Ka
T1 construct: endogenous in cells; host or cells: cell lysate
How it was run: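 Competitive binding in cell lysate: test compounds at various concentrations compete with beads carrying an immobilized phenylmorpholin-chromen ligand. Bead-captured kinases are eluted and quantified by multiplexed immunodetection. IC50 values come from dose-response curves for each kinase.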

[2] = target: T2, DNA-dependent protein kinase (DNA-PK) (Homo sapiens, UniProt P78527); test: kinobeads assay, DNA-PK; type: binding; conditions: kinobeads assay
T2 construct: endogenous in cells; host or cells: Jurkat, clone E6-1 (ATCC TIB-152) cell lysate
How it was run: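 IC50 values came from dose-response curves after test compound (1:3 series) competed with an immobilized phenylmorpholin-chromen affinity matrix for kinases in Jurkat lysate at 5 mg/mL protein. Eluted captured DNA-PK and PI3Kδ were measured by specific-antibody dot blot and infrared imaging. Buffer was Tris pH 7.4, NP40, MgCl2, NaCl, vanadate, DTT, NaF.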

[3] = Table 4, read-out: Inhibition values (IC50) DNA-PK
[4] = Table 6, read-out: Inhibition values (IC50) DNAPK

T1 sequence (P42336 whole entry): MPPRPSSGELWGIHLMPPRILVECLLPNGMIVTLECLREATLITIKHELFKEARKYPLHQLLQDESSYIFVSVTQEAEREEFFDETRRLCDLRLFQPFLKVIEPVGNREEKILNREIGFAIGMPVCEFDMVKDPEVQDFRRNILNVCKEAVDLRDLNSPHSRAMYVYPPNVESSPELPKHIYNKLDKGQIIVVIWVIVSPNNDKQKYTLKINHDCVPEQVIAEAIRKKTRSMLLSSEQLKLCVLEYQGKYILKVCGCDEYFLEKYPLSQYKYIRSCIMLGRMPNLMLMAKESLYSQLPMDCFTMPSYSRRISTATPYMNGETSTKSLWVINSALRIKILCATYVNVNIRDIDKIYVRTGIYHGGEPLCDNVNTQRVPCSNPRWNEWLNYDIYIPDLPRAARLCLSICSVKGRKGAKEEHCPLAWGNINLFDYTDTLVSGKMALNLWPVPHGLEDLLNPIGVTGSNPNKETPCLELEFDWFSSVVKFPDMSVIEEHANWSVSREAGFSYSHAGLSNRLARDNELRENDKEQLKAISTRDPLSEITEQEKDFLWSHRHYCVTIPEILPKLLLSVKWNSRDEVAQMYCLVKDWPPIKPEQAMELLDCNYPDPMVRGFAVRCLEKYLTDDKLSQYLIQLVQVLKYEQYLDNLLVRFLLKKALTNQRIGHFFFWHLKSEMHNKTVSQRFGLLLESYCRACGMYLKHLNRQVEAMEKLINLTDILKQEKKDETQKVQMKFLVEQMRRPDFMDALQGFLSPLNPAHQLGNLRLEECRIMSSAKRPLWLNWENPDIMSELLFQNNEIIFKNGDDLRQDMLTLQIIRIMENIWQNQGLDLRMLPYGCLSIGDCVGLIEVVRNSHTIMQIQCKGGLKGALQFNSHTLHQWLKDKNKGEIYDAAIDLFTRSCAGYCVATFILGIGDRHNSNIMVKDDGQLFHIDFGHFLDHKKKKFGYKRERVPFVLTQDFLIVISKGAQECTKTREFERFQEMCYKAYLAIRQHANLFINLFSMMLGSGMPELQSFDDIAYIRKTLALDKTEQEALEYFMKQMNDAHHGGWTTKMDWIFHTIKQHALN
T1 sequence (P27986 whole entry partner): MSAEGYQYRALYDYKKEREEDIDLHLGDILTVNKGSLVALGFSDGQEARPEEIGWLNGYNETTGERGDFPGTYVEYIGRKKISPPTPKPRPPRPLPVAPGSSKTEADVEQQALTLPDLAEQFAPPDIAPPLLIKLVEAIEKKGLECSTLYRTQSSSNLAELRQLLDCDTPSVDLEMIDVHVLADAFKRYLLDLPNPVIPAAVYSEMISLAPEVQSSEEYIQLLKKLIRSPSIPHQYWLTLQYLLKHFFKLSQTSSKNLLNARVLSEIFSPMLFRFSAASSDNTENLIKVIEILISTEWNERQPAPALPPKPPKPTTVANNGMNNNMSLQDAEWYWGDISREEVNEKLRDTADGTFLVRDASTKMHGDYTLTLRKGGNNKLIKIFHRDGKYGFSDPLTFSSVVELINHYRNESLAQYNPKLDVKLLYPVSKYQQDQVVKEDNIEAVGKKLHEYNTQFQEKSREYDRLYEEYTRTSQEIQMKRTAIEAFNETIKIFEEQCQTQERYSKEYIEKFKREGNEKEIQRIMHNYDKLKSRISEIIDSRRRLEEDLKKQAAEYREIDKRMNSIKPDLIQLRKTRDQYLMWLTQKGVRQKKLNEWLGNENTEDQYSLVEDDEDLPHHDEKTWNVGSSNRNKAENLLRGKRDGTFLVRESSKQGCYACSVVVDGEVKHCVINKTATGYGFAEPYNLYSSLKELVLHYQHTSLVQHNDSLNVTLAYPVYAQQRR

| Compound | Inhibition values (IC50) PI3Ka [1] | IC50 [2, 3] | IC50 [2, 4] | IC50 [1] |
| --- | --- | --- | --- | --- |
| CCNC(=O)Nc1ccc(-c2nc3c(c(N4CCOC[C@@H]4C)n2)CCN(C(=O)C(C)(C)C)C3)cc1 [Example 58, (S)-1-ethyl-3-(4-(4-(3-methylmorpholino)-7-pivaloyl-5,6,7,8-tetrahydropyrido[3,4-d]pyrimidin-2-yl)phenyl)urea] | D (D >10 μM) | > 10 µM | > 10 µM |  |
| CCNC(=O)Nc1ccc(-c2nc3c(c(N4CCOC[C@@H]4C)n2)CN(C(C)C)C3)cc1 [Example 74, (S)-1-ethyl-3-(4-(6-isopropyl-4-(3-methylmorpholino)-6,7-dihydro-5H-pyrrolo[3,4-d]pyrimidin-2-yl)phenyl)urea] | D (D >10 μM) |  | > 10 µM |  |
| CCNC(=O)Nc1ccc(-c2nc3c(c(N4CCOC[C@@H]4C)n2)CN(C)C3)cc1F [Example 85, (S)-1-ethyl-3-(2-fluoro-4-(6-methyl-4-(3-methylmorpholino)-6,7-dihydro-5H-pyrrolo[3,4-d]pyrimidin-2-yl)phenyl)urea] | D (D >10 μM) |  | > 10 µM |  |
| C[C@H]1COCCN1c1nc(-c2ccc(NC(=O)NC3CC3)cc2)nc2c1CCN(C(=O)C1CC1)C2 [Example 60, (S)-1-(4-(7-(cyclopropanecarbonyl)-4-(3-methylmorpholino)-5,6,7,8-tetrahydropyrido[3,4-d]pyrimidin-2-yl)phenyl)-3-cyclopropylurea] | D (D >10 μM) | > 10 µM | > 10 µM |  |
| CCNC(=O)Nc1ccc(-c2nc3c(c(N4CCOC[C@@H]4C)n2)CN(CC(F)(F)F)C3)cc1 [Example 68, (S)-1-ethyl-3-(4-(4-(3-methylmorpholino)-6-(2,2,2-trifluoroethyl)-6,7-dihydro-5H-pyrrolo[3,4-d]pyrimidin-2-yl)phenyl)urea] | D (D >10 μM) |  | > 10 µM |  |
| C[C@H]1COCCN1c1nc(-c2ccc(NC(=O)Nc3cccc(O)n3)cc2)nc2c1CN(C)C2 [Example 80, (S)-1-(6-hydroxypyridin-2-yl)-3-(4-(6-methyl-4-(3-methylmorpholino)-6,7-dihydro-5H-pyrrolo[3,4-d]pyrimidin-2-yl)phenyl)urea] |  |  | > 10 µM | 1 to 10 µM |
| Cc1cc(NC(=O)Nc2ccc(-c3nc4c(c(N5CCOC[C@@H]5C)n3)CN(C)C4)cc2)no1 [Example 72, (S)-1-(4-(6-methyl-4-(3-methylmorpholino)-6,7-dihydro-5H-pyrrolo[3,4-d]pyrimidin-2-yl)phenyl)-3-(5-methylisoxazol-3-yl)urea] | D (D >10 μM) |  | > 10 µM |  |
| CCNC(=O)Nc1ccc(-c2nc3c(c(N4CCOC[C@@H]4C)n2)CN(CC(C)(C)C)C3)cc1 [Example 67, (S)-1-ethyl-3-(4-(4-(3-methylmorpholino)-6-neopentyl-6,7-dihydro-5H-pyrrolo[3,4-d]pyrimidin-2-yl)phenyl)urea] | D (D >10 μM) |  | > 10 µM |  |
| CCNC(=O)Nc1ccc(-c2nc3c(c(N4CCOC[C@@H]4C)n2)CCN(CC(C)C)C3)cc1.O=CO [Example 76, (S)-1-ethyl-3-(4-(7-isobutyl-4-(3-methylmorpholino)-5,6,7,8-tetrahydropyrido[3,4-d]pyrimidin-2-yl)phenyl)urea formate] | D (D >10 μM) |  | > 10 µM |  |
| COC(=O)N1Cc2nc(-c3ccc(NC(=O)NC4CC4)cc3)nc(N3CCOC[C@@H]3C)c2C1 [Example 86, (S)-methyl 2-(4-(3-cyclopropylureido)phenyl)-4-(3-methylmorpholino)-5H-pyrrolo[3,4-d]pyrimidine-6(7H)-carboxylate] | D (D >10 μM) |  | > 10 µM |  |
| CCNC(=O)Nc1ccc(-c2nc3c(c(N4CCOC[C@@H]4C)n2)CN(C(=O)OC(C)(C)C)C3)cc1 [Example 1, (S)-tert-butyl 2-(4-(3-ethylureido)phenyl)-4-(3-methylmorpholino)-5H-pyrrolo[3,4-d]pyrimidine-6(7H)-carboxylate] |  | > 10 µM | > 10 µM |  |
| CCNC(=O)Nc1ccc(-c2nc3c(c(N4CCOC[C@@H]4C)n2)CCN(C(=O)OCC)C3)cc1 [Example 77, (S)-ethyl 2-(4-(3-ethylureido)phenyl)-4-(3-methylmorpholino)-5,6-dihydropyrido[3,4-d]pyrimidine-7(8H)-carboxylate] | D (D >10 μM) |  | > 10 µM |  |
| CCNC(=O)Nc1ccc(-c2nc3c(c(N4CCOCC4)n2)CCN(C)C3)cc1 [Example 93, 1-ethyl-3-(4-(7-methyl-4-morpholino-5,6,7,8-tetrahydropyrido[3,4-d]pyrimidin-2-yl)phenyl)urea] | D (D >10 μM) |  | > 10 µM |  |
| CCNC(=O)Nc1ccc(-c2nc3c(c(N4CCOC[C@@H]4C)n2)CCN(C(=O)OC)C3)cc1 [Example 81, (S)-methyl 2-(4-(3-ethylureido)phenyl)-4-(3-methylmorpholino)-5,6-dihydropyrido[3,4-d]pyrimidine-7(8H)-carboxylate] | D (D >10 μM) |  | > 10 µM |  |
| CCNC(=O)Nc1ccc(-c2nc3c(c(N4CCOC[C@@H]4C)n2)CN(C(=O)OC)C3)cc1 [Example 89, (S)-methyl 2-(4-(3-ethylureido)phenyl)-4-(3-methylmorpholino)-5H-pyrrolo[3,4-d]pyrimidine-6(7H)-carboxylate] | D (D >10 μM) |  | 1 to 10 µM |  |
| CCNC(=O)Nc1ccc(-c2nc3c(c(N4CCOCC4)n2)CN(C(=O)OCC)C3)cc1 [Example 70, Ethyl 2-(4-(3-ethylureido)phenyl)-4-morpholino-5H-pyrrolo[3,4-d]pyrimidine-6(7H)-carboxylate] | D (D >10 μM) |  | 1 to 10 µM |  |
| CCNC(=O)Nc1ccc(-c2nc3c(c(N4CCOC[C@@H]4C)n2)CCN(C(C)=O)C3)cc1 [Example 59, (S)-1-(4-(7-acetyl-4-(3-methylmorpholino)-5,6,7,8-tetrahydropyrido[3,4-d]pyrimidin-2-yl)phenyl)-3-ethylurea] |  | > 10 µM | > 10 µM |  |

Second part, the compound after the results:

| Inhibition values (IC50) PI3Ka [1] | IC50 [2, 3] | IC50 [2, 4] | IC50 [1] | Compound |
| --- | --- | --- | --- | --- |
|  |  | > 10 µM | 1 to 10 µM | CCNC(=O)Nc1ccc(-c2nc3c(c(N4CCOCC4)n2)CN(C(=O)C(C)(C)C)C3)cc1 [Example 100, 1-ethyl-3-(4-(4-morpholino-6-pivaloyl-6,7-dihydro-5H-pyrrolo[3,4-d]pyrimidin-2-yl)phenyl)urea] |
|  |  | > 10 µM | 1 to 10 µM | CCNC(=O)Nc1ccc(-c2nc3c(c(N4CCOCC4)n2)CCN(C(=O)NCC)C3)cc1 [Example 94, N-ethyl-2-(4-(3-ethylureido)phenyl)-4-morpholino-5,6-dihydropyrido[3,4-d]pyrimidine-7(8H)-carboxamide] |
| D (D >10 μM) |  | > 10 µM |  | CCNC(=O)Nc1ccc(-c2nc3c(c(N4CCOC[C@@H]4C)n2)CN(C(=O)OCC)CC3)cc1 [Example 107, (S)-ethyl 2-(4-(3-ethylureido)phenyl)-4-(3-methylmorpholino)-7,8-dihydropyrido[4,3-d]pyrimidine-6(5H)-carboxylate] |
|  |  | 1 to 10 µM | 1 to 10 µM | CCNC(=O)Nc1ccc(-c2nc3c(c(N4CCOCC4)n2)CCN(C(C)=O)C3)cc1 [Example 97, 1-(4-(7-acetyl-4-morpholino-5,6,7,8-tetrahydropyrido[3,4-d]pyrimidin-2-yl)phenyl)-3-ethylurea] |
| D (D >10 μM) |  | > 10 µM |  | CCNC(=O)Nc1ccc(-c2nc3c(c(N4CCOC[C@@H]4C)n2)CN(C2CCN(C(=O)OC)CC2)C3)cc1F [Example 122, (S)-methyl 4-(2-(4-(3-ethylureido)-3-fluorophenyl)-4-(3-methylmorpholino)-5H-pyrrolo[3,4-d]pyrimidin-6(7H)-yl)piperidine-1-carboxylate] |
| D (D >10 μM) |  | > 10 µM |  | CCNC(=O)Nc1cc(F)c(-c2nc3c(c(N4CCOC[C@@H]4C)n2)CCN(C)C3)cc1F [Example 108, (S)-1-(2,5-difluoro-4-(7-methyl-4-(3-methylmorpholino)-5,6,7,8-tetrahydropyrido[3,4-d]pyrimidin-2-yl)phenyl)-3-ethylurea] |
| D (D >10 μM) |  | > 10 µM |  | CCOC(=O)N1Cc2nc(-c3ccc(NC(=O)Nc4ccncc4)cc3)nc(N3CCOC[C@@H]3C)c2C1 [Example 121, (S)-ethyl 4-(3-methylmorpholino)-2-(4-(3-(pyridin-4-yl)ureido)phenyl)-5H-pyrrolo[3,4-d]pyrimidine-6(7H)-carboxylate] |
| D (D >10 μM) |  | > 10 µM |  | CCNC(=O)Nc1ncc(-c2nc3c(c(N4CCOC[C@@H]4C)n2)CCN(C)C3)s1 [Example 106, (S)-1-ethyl-3-(5-(7-methyl-4-(3-methylmorpholino)-5,6,7,8-tetrahydropyrido[3,4-d]pyrimidin-2-yl)thiazol-2-yl)urea] |
|  |  | > 10 µM |  | C[C@H]1COCCN1c1nc(-c2ccc(NC(=O)NC3CC3)cc2)nc2c1CN(CC(F)(F)F)C2 [Example 101, (S)-1-cyclopropyl-3-(4-(4-(3-methylmorpholino)-6-(2,2,2-trifluoroethyl)-6,7-dihydro-5H-pyrrolo[3,4-d]pyrimidin-2-yl)phenyl)urea] |
| D (D >10 μM) |  |  |  | C[C@H]1COCCN1c1nc(-c2ccc(NC(=O)NC3CC3)cc2)nc2c1CN(C(=O)C1CCOCC1)C2 [Example 129, (S)-1-cyclopropyl-3-(4-(4-(3-methylmorpholino)-6-(tetrahydro-2H-pyran-4-carbonyl)-6,7-dihydro-5H-pyrrolo[3,4-d]pyrimidin-2-yl)phenyl)urea] |
